{
  "source": "ChEMBL document CHEMBL5678811",
  "about": "(Invest New Drugs, 2014)",
  "key": {"COLO 205 [1]": {"test_system": "COLO 205", "details": "Mus musculus, CD1, dose 25-50 mg/kg, route po"}, "MCF-10A": {"test_system": "MCF-10A", "assay": "Cell cycle arrest in human MCF-10A cells assessed as accumulation of cells at G1 phase by measuring increase in 2N DNA content measured after 24 hrs by propidium iodide staining based laser-scanning fluorescence cytometry", "type": "toxicity"}, "Mus musculus": {"species": "Mus musculus", "details": "CD1, dose 50.0 mg/kg, route po, time 17.0 day"}, "MV4-11 [2]": {"test_system": "MV4-11", "assay": "Cell cycle arrest in human MV4-11 cells assessed as accumulation of cells at S-phase at 2.5 uM measured after 24 hrs by propidium iodide staining based flow cytometry (reference value: 23.35%)", "type": "functional"}, "[3]": {"assay": "Toxicity in human Calu-6 cells xenografted CD1 nu/nu mouse assessed as body weight loss at 50 mg/kg, po administered once daily via gavage for 21 days measured twice per week during compound dosing in presence of gemcitabine", "type": "organism-based", "details": "in vivo, time 21 day"}, "COLO 205 [4]": {"test_system": "COLO 205", "details": "Mus musculus, CD1, dose 50.0 mg/kg, route po"}, "[5]": {"assay": "Inhibition of recombinant human full-length N-terminal 6His-tagged/beta-subunit N-terminal GST tagged CK2 expressed in Sf21 insect cells at 200 nM using casein kinase 2 substrate peptide relative to control", "details": "condition cancer"}, "COLO 205 [6]": {"test_system": "COLO 205", "details": "Mus musculus, CD1, dose 50.0 mg/kg, route po", "remark": "listed apart in the source"}, "COLO 205 [7]": {"test_system": "COLO 205", "details": "Mus musculus, CD1, dose 50.0 mg/kg, route po", "remark": "listed apart in the source"}, "MDA-MB-231 [8]": {"test_system": "MDA-MB-231", "assay": "Cell cycle arrest in human MDA-MB-231 cells assessed as accumulation of cells at G1-phase at 2.5 uM measured after 24 hrs by propidium iodide staining based flow cytometry (reference value: 50.27%)", "type": "functional"}, "MV4-11 [9]": {"test_system": "MV4-11", "assay": "Cell cycle arrest in human MV4-11 cells assessed as accumulation of cells at G1-phase at 1.25 uM measured after 24 hrs by propidium iodide staining based flow cytometry (reference value: 61.42%)", "type": "functional"}, "[10]": {"assay": "Toxicity in human COLO 205 cells xenografted CD1 nu/nu mouse assessed as body weight loss at 50 mg/kg, po administered daily via gavage for 56 days and measured twice per week during compound dosing", "type": "organism-based", "details": "in vivo, 1344 h, time 56 day"}, "MV4-11 [11]": {"test_system": "MV4-11", "assay": "Cell cycle arrest in human MV4-11 cells assessed as accumulation of cells at S-phase at 0.16 uM measured after 24 hrs by propidium iodide staining based flow cytometry (reference value: 23.35%)", "type": "functional"}, "MDA-MB-231 [12]": {"test_system": "MDA-MB-231", "assay": "Cell cycle arrest in human MDA-MB-231 cells assessed as accumulation of cells at G2/M-phase at 0.16 uM measured after 24 hrs by propidium iodide staining based flow cytometry (reference value: 11.46%)", "type": "functional"}, "[13]": {"target": "High affinity nerve growth factor receptor (Homo sapiens) (UniProt P04629)", "sequence (P04629 33-796 limits assumed)": "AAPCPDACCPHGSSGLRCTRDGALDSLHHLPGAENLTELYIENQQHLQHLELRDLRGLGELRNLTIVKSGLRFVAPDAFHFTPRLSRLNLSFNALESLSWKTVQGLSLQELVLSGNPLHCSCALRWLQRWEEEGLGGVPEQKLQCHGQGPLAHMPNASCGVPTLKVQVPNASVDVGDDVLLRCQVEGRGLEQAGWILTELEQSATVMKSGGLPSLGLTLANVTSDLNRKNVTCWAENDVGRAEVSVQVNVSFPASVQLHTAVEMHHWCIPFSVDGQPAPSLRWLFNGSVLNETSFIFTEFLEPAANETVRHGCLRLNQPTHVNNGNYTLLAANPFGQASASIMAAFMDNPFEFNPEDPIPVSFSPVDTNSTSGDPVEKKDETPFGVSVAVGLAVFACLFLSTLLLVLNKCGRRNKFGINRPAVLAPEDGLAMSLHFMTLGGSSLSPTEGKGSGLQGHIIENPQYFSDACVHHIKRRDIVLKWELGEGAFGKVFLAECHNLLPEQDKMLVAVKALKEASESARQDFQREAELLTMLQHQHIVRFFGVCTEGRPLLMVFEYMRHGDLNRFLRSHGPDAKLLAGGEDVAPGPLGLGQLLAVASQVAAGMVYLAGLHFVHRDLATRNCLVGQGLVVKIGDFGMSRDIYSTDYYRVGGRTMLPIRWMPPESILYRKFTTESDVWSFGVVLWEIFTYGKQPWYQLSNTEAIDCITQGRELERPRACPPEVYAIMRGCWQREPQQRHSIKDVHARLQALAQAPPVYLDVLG", "details": "Sf21, dose 200.0 nM"}, "MDA-MB-231 [14]": {"test_system": "MDA-MB-231", "assay": "Cell cycle arrest in human MDA-MB-231 cells assessed as accumulation of cells at G1-phase at 0.16 uM measured after 24 hrs by propidium iodide staining based flow cytometry (reference value: 50.27%)", "type": "functional"}, "[15]": {"target": "Mitogen-activated protein kinase 10 (Homo sapiens) (UniProt P53779)", "sequence (P53779 whole entry)": "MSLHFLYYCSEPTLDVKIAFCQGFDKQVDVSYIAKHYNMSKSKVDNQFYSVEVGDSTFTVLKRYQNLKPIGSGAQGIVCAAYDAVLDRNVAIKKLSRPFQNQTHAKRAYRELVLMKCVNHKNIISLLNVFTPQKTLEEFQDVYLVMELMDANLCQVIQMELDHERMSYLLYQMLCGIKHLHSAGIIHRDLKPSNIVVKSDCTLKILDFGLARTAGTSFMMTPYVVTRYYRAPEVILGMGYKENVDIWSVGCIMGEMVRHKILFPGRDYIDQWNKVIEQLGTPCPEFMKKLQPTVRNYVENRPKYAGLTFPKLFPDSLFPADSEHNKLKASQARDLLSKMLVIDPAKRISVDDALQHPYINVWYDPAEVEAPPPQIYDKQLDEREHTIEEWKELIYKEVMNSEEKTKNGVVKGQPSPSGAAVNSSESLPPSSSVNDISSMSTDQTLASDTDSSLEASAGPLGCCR", "details": "Sf21, dose 200.0 nM", "description": "Inhibition of recombinant human N-terminal His6-tagged JNK3 expressed in baculovirus infected Sf21 insect cells relative to control"}, "COLO 205 [16]": {"test_system": "COLO 205", "details": "Mus musculus, CD1, dose 50.0 mg/kg, route po, time lower 1.0 hrs, time upper […], TDE = time-dependent effect"}, "COLO 205 [17]": {"test_system": "COLO 205", "details": "Mus musculus, CD1, dose 100.0 mg/kg, route po, time 21.0 day"}, "MV4-11 [18]": {"test_system": "MV4-11", "assay": "Cell cycle arrest in human MV4-11 cells assessed as accumulation of cells at G2/M-phase at 0.16 uM measured after 24 hrs by propidium iodide staining based flow cytometry (reference value: 15.23%)", "type": "functional"}, "[19]": {"assay": "Toxicity in human COLO 205 cells xenografted CD1 nu/nu mouse assessed as decrease in lymphocyte count at 50 mg/kg, po administered daily via gavage for 56 days and measured on day 41 to 69 by hematological analysis", "type": "organism-based", "details": "in vivo, 1344 h, time 41-69 day"}, "[20]": {"assay": "Toxicity in human COLO 205 cells xenografted CD1 nu/nu mouse assessed as change in ileum histology at 50 mg/kg, po administered daily via gavage for 56 days and measured on day 41 to 69 by histopathological analysis", "type": "organism-based", "details": "in vivo, 1344 h, time 41-69 day"}, "COLO 205 [21]": {"test_system": "COLO 205", "details": "Homo sapiens, dose 25-100 mg/kg, route po, time 35.0 day"}, "COLO 205 [22]": {"test_system": "COLO 205", "details": "Mus musculus, CD1, dose 50.0 mg/kg, route po", "remark": "listed apart in the source"}, "[23]": {"assay": "Toxicity in human COLO 205 cells xenografted CD1 nu/nu mouse assessed as decrease in red cell mass at 50 mg/kg, po administered daily via gavage for 56 days and measured on day 41 to 69 by hematological analysis", "type": "organism-based", "details": "in vivo, 1344 h, time 41-69 day"}, "[24]": {"target": "T1, Serine/threonine-protein kinase 17A (Homo sapiens) (UniProt Q9UEE5)", "T1 sequence (whole entry)": "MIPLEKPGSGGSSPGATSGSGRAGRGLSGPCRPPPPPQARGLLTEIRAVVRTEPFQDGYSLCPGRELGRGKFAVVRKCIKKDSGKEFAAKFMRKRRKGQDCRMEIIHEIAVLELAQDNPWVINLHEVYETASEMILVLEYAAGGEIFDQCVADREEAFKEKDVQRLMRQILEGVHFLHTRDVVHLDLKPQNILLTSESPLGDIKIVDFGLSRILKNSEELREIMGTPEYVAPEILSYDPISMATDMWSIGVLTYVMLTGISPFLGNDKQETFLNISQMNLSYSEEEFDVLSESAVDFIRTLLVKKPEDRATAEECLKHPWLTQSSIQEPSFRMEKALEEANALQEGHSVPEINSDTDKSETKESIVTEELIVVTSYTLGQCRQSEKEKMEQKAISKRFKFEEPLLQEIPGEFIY", "details": "Sf21, dose 200.0 nM", "description": "Inhibition of recombinant human full-length N-terminal 6His-tagged DRAK1 expressed in baculovirus infected Sf21 cells at 200 nM using ZIPtide as substrate relative to control"}, "[25]": {"assay": "Toxicity in human COLO 205 cells xenografted CD1 nu/nu mouse assessed as change in cecum histology at 50 mg/kg, po administered daily via gavage for 2 cycles of 3 weeks on/1 week rest and measured on day 41 to 69 by histopathological analysis", "type": "organism-based", "details": "in vivo, time 41-69 day"}, "COLO 205 [26]": {"test_system": "COLO 205", "details": "Homo sapiens, dose 50.0 mg/kg, route po, time > 56.0 day"}, "[27]": {"target": "Cyclin-dependent kinase 5/CDK5 activator 1 (Homo sapiens) (UniProt Q00535+Q15078)", "sequence (Q00535 whole entry)": "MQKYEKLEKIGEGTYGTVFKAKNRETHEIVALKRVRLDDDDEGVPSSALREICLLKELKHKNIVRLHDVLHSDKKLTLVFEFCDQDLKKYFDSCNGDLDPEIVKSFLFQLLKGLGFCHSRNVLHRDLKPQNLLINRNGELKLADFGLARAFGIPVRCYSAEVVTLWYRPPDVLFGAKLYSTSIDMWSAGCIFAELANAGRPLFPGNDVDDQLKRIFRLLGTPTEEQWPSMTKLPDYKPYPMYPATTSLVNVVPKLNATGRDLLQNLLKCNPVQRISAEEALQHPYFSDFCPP", "sequence (Q15078 99-307 partner limits assumed)": "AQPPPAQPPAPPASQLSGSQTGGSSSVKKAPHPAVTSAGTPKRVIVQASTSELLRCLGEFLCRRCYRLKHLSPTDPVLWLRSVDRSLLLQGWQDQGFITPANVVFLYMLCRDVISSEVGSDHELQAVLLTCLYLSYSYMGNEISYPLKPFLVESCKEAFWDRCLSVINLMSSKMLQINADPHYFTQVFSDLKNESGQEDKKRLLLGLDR", "details": "Sf21, dose 200.0 nM", "description": "Inhibition of recombinant human full-length N-terminal His6-tagged cdk5/N-terminal GST-tagged p25 expressed in baculovirus infected Sf21 cells at 200 nM using histone H1 as substrate relative to control"}, "[28]": {"assay": "Toxicity in human COLO 205 cells xenografted CD1 nu/nu mouse assessed as body weight loss at 25 to 100 mg/kg, po administered once daily via gavage for 21 days measured twice per week during compound dosing", "type": "organism-based", "details": "in vivo, dose 25-100 mg/kg, time 21 day"}},
  "note": "The source made the active and inactive calls. No cut-off for these calls is given here.",
  "data": [
    {"molecule": "CCN1CCN(Cc2ccc(Nc3ncc(F)c(-c4cc(F)c5nc(C)n(C(C)C)c5c4)n3)nc2)CC1", "note": "[ABEMACICLIB]", "values": [
      {"measurement": "inhibition", "setting": "COLO 205 [1]", "value": "Dose-Dependent Effect"},
      {"measurement": "Activity", "setting": "MCF-10A", "value": "Toxic"},
      {"measurement": "inhibition", "setting": "Mus musculus", "value": "inactive"},
      {"measurement": "Activity", "setting": "MV4-11 [2]", "value": 2.99, "unit": "%"},
      {"measurement": "Activity", "setting": "[3]", "value": "Non-Toxic"},
      {"measurement": "inhibition", "setting": "COLO 205 [4]", "value": "inactive"},
      {"measurement": "inhibition at 0.2 µM", "setting": "[5]", "value": "> 90", "unit": "%"},
      {"measurement": "inhibition", "setting": "COLO 205 [6]", "value": "Active"},
      {"measurement": "inhibition", "setting": "COLO 205 [7]", "value": "inactive"},
      {"measurement": "Activity", "setting": "MDA-MB-231 [8]", "value": 86.04, "unit": "%"},
      {"measurement": "Activity", "setting": "MV4-11 [9]", "value": 93.98, "unit": "%"},
      {"measurement": "Activity", "setting": "[10]", "value": "Non-Toxic"},
      {"measurement": "Activity", "setting": "MV4-11 [11]", "value": 4.59, "unit": "%"},
      {"measurement": "Activity", "setting": "MDA-MB-231 [12]", "value": 4.02, "unit": "%"},
      {"measurement": "inhibition", "setting": "[13]", "value": "> 90", "unit": "%"},
      {"measurement": "Activity", "setting": "MDA-MB-231 [14]", "value": 78.86, "unit": "%"},
      {"measurement": "inhibition", "setting": "[15]", "value": "> 90", "unit": "%"},
      {"measurement": "inhibition", "setting": "COLO 205 [16]", "value": "Tde"},
      {"measurement": "inhibition", "setting": "COLO 205 [17]", "value": "Active"},
      {"measurement": "Activity", "setting": "MV4-11 [18]", "value": 2.73, "unit": "%"},
      {"measurement": "Activity", "setting": "[19]", "value": "Non-Toxic"},
      {"measurement": "Activity", "setting": "[20]", "value": "Non-Toxic"},
      {"measurement": "TGI", "setting": "COLO 205 [21]", "value": "Dose-Dependent Effect"},
      {"measurement": "inhibition", "setting": "COLO 205 [22]", "value": "Active"},
      {"measurement": "Activity", "setting": "[23]", "value": "Non-Toxic"},
      {"measurement": "inhibition", "setting": "[24]", "value": "> 90", "unit": "%"},
      {"measurement": "Activity", "setting": "[25]", "value": "Non-Toxic"},
      {"measurement": "TGI", "setting": "COLO 205 [26]", "value": "Active"},
      {"measurement": "inhibition", "setting": "[27]", "value": "> 90", "unit": "%"},
      {"measurement": "Activity", "setting": "[28]", "value": "Non-Toxic"}
    ]}
  ]
}
